Values quoted from earlier work, collected in patent US11844805B2, “Formulations of testosterone and methods of treatment therewith” (BOARD OF REGENTS, THE UNIVERSITY OF TEXAS SYSTEM, priority 2014, dated 2023).

Columns and labels:
[1] = women, single dose, sublingual
[2] = intranasal administration; baseline mean 2.5 pmol/L

Q: With C[C@]12CC[C@H]3[C@@H](CCC4=CC(=O)CC[C@@]43C)[C@@H]1CC[C@@H]2O [testosterone] as the compound, how does the “effect on subjective sexual desire, genital responsiveness and genital arousal” value [1] read?
A: increase subjective sexual desire, genital responsiveness, and genital arousal

Q: And the “maximum testosterone concentration (mean)” value [2]?
A: 168.2 pmol/L
